The target in data set [1] is T1, human muscarinic receptor subtype M5 (Homo sapiens, UniProt P08912).
T1 sequence (P08912 1-532): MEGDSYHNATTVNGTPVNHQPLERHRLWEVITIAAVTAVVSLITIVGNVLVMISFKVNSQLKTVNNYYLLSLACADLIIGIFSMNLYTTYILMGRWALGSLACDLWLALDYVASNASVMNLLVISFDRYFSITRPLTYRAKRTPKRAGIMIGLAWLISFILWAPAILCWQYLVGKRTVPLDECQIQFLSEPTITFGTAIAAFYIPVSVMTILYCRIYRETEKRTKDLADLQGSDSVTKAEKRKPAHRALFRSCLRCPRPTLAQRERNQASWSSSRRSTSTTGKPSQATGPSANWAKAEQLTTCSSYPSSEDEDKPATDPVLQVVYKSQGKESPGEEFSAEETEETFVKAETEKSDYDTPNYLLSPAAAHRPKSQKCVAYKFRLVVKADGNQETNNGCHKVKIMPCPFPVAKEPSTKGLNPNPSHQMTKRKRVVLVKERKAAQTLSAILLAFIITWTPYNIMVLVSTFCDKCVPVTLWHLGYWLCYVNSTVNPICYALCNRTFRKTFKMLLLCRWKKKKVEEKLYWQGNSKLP
Kind of data set: Muscarinic receptor binding, displacement of [3H]-NMS, membranes from transfected CHO cells. As to conditions: [3H]-NMS displacement, CHO cell membranes; tested two to four times, SEM <=10%; read-out: Muscarinic Binding Activity M5 (IC50). How it is done: (§1) The compounds were evaluated in standard assays used to measure muscarinic receptor binding, and they were compared with other benzoxazines described in Bioorganic & Medicinal Chemistry Letters 8, 1998:1991-1996, which is incorporated herein by reference. Specifically, the compounds were evaluated for their binding affinity toward five human muscarinic receptor subtypes (M1-M5) by the method of Dorje et al., J. Pharm. Exp. Ther. 1991;256:727-733, which is incorporated herein by reference. The binding was determined by measuring the displacement of [^3H]-NMS (N-methylscopolamine) binding using membranes from transfected Chinese hamster ovary (CHO) cells.
Background: Displacement assays read how much labelled ligand stays bound in the presence of the test substance.

Data set [2] concerns the target T2, human muscarinic receptor subtype M2 (Homo sapiens, UniProt P08172).
T2 sequence (P08172 1-466): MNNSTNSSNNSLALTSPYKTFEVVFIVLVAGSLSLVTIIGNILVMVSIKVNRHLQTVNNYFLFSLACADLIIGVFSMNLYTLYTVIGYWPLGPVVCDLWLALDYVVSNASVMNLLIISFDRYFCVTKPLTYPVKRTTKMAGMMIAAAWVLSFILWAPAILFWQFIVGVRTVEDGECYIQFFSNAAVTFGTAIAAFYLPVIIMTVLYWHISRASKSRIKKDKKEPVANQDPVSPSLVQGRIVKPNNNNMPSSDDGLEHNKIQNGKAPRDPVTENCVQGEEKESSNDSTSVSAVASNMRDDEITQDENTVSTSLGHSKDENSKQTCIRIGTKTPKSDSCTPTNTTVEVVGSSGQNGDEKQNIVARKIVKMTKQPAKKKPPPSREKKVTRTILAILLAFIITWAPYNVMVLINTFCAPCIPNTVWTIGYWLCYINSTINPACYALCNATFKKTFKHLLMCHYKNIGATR
The description is as above. As to conditions: [3H]-NMS displacement, CHO cell membranes; tested two to four times, SEM <=10%; read-out: Muscarinic Binding Activity M2 (IC50). How it is done:
as §1

Data set [3] concerns the target T3, human muscarinic receptor subtype M1 (Homo sapiens, UniProt P11229).
T3 sequence (P11229 1-460): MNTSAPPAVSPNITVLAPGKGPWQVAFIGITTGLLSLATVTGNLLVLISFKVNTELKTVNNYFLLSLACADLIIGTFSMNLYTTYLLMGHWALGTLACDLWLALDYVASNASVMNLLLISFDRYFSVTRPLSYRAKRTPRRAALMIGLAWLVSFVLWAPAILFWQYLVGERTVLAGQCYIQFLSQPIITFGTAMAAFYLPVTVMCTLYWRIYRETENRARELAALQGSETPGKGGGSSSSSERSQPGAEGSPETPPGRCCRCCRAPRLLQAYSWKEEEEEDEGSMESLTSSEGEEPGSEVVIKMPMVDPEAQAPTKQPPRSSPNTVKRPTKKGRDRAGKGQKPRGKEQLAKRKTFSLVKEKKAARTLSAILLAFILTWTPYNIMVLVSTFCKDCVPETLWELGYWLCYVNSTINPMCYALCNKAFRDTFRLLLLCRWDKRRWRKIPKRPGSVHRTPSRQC
Described as above. As to conditions: [3H]-NMS displacement, CHO cell membranes; tested two to four times, SEM <=10%; read-out: Muscarinic Binding Activity M1 (IC50). The procedure:
as §1

In data set [4] the target is human muscarinic receptor subtype M3 (Homo sapiens, UniProt P20309). The data set is described as above. As to conditions: [3H]-NMS displacement, CHO cell membranes; tested two to four times, SEM <=10%; read-out: Muscarinic Binding Activity M3 (IC50). How it is done:
as §1

Data set [5] concerns the target T4, human muscarinic receptor subtype M4 (Homo sapiens, UniProt P08173).
T4 sequence (P08173 1-479): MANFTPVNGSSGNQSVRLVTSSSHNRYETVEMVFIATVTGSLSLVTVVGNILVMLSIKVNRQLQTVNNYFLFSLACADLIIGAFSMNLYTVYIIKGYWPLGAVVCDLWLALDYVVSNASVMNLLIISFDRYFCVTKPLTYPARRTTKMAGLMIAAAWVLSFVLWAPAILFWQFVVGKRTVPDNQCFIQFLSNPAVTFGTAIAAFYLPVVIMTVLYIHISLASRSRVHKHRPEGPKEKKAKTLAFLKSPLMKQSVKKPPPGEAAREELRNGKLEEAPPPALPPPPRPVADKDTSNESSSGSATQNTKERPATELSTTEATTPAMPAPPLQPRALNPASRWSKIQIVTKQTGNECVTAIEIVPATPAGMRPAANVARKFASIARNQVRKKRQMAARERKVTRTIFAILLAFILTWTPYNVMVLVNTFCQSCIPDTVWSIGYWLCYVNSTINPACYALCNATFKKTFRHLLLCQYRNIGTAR
The description is as above. As to conditions: [3H]-NMS displacement, CHO cell membranes; tested two to four times, SEM <=10%; read-out: Muscarinic Binding Activity M4 (IC50). How it is done:
as §1

SMILES strings stand for the structures.

Consider one compound from US6812228B2, “Benzoxazines for use in the treatment of parkinson's disease” (Warner-Lambert Company, priority 2000, dated 2004).

human muscarinic receptor subtype M3, sequence (P20309 whole entry): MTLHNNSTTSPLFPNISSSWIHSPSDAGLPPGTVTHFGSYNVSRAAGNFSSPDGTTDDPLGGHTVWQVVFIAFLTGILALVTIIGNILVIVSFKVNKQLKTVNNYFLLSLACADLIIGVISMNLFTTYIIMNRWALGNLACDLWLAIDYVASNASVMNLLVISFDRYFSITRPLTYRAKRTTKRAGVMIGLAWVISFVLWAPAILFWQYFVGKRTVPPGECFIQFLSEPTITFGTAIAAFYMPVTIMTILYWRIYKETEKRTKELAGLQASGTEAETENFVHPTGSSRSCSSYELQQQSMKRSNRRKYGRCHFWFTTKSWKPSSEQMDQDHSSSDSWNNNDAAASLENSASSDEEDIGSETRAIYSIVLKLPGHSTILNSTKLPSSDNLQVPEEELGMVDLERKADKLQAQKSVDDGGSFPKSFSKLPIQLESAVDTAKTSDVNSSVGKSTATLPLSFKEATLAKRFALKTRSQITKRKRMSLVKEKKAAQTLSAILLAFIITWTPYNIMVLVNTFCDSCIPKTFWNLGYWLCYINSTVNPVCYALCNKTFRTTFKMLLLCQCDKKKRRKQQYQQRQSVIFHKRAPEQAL

With `CCCc1[nH]c2ccc3c(c2c1C(=O)OCC)CN1CCc2cc(OC)ccc2C1O3` (stereo not drawn) [Example 1, 9-Methoxy-2-propyl-11,12-dihydro-3H,6αH,13H-6-oxa-3,12α-diaza-benzo[a]cyclopent[h]anthracene-1-carboxylic acid ethyl ester], the melting point (as a rule, the temperature, or range, at which the solid turns liquid) lay in the range of 191 to 193 °C. The IC50 (as a rule, the concentration at which inhibition is half-maximal) in data set [1] is 3660 nM. Further, in data set [2], the IC50 was determined as 2000 nM. Besides, in data set [3], the IC50 is 4660 nM. Further, the IC50 in data set [4] amounted to 130 nM. In addition, the IC50 in data set [5] amounted to 9 nM.
